Measured values published in patent US11554171B2, “Compounds and methods for the targeted degradation of bromodomain-containing proteins” (Arvinas Operations, Inc., priority 2015, dated 2023).

System: c-myc in 22RV-1 cells
Assay: Human c-myc ELISA assay
Format: cell-based
Details: Homo sapiens; for Emax: 22Rv1, 18 h, read-out: Degradation of BRD4: Maximum inhibition (%) c-Myc ELISA in 22RV1 cells; for DC50: 22Rv1, read-out: Degradation of BRD4: DC50 (uM) c-Myc ELISA in 22RV1 cells
Method in brief: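 22RV-1 cells treated 18 h with 8-point 1:3 compound dilutions (final top 300 nM or 1 μM, 0.1% DMSO). Cells lysed in RIPA buffer with protease/phosphatase inhibitors, and c-myc protein in cleared lysate quantified by ELISA against a standard curve. DC50 reported for c-myc suppression.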

SMILES | Emax [%] | DC50 [µM]
Cc1ncsc1-c1ccc(CNC(=O)[C@@H]2C[C@@H](O)CN2C(=O)[C@H](c2cc(Oc3ccc(O[C@H]4C[C@@H](NC(=O)C[C@@H]5N=C(c6ccc(Cl)cc6)c6c(sc(C)c6C)-n6c(C)nnc65)C4)nc3)no2)C(C)C)cc1 [Example 324] | 31.6 | > 1
Cc1ncsc1-c1ccc([C@H](C)NC(=O)[C@@H]2C[C@@H](O)CN2C(=O)[C@@H](NC(=O)c2ccc(OCCCCNC(=O)C[C@@H]3N=C(c4ccc(Cl)cc4)c4c(sc(C)c4C)-n4c(C)nnc43)cn2)C(C)(C)C)cc1 [Example 115] | 100 | < 0.01
Cc1ncsc1-c1ccc(CNC(=O)C2C[C@@H](O)CN2C(=O)[C@@H](NC(=O)COCCOCCOCCOCCOc2ccc3c(c2)c2c(C(N)=O)cc(-c4c(C)noc4C)cc2n3Cc2ccccc2)C(C)(C)C)cc1 (stereo partly shown) [Example 89, 9-Benzyl-2-(dimethyl-1,2-oxazol-4-yl)-6{[1-({1-[4-hydroxy-2-({[4-(4-methyl-1,3-thiazol-5-yl)phenyl]methyl}carbamoyl)pyrrolidin-1-yl]-3,3-dimethyl-1-oxobutan-2-yl}carbamoyl)-2,5,8,11-tetraoxatridecan-13-yl]oxy}-9H-carbazole-4-carboxamide] | 99.5 | 0.01 to 0.1
Cc1ncsc1-c1ccc(CNC(=O)[C@@H]2C[C@@H](O)CN2C(=O)[C@@H](NC(=O)Cc2ccc(OCCNC(=O)C[C@@H]3N=C(c4ccc(Cl)cc4)c4c(sc(C)c4C)-n4c(C)nnc43)cn2)C(C)(C)C)cc1 [Example 92] | 91.1 | 0.1 to 1
Cc1ncoc1-c1ccc(CNC(=O)[C@@H]2C[C@@H](O)CN2C(=O)[C@@H](NC(=O)COCCOCCCOc2ccc([C@@H](C)NC(=O)C[C@@H]3N=C(c4ccc(Cl)cc4)c4c(sc(C)c4C)-n4c(C)nnc43)cc2)C(C)(C)C)cc1 [Example 31] | 65 | 0.1 to 1
Cc1ncsc1-c1ccc([C@H](C)NC(=O)[C@@H]2C[C@@H](O)CN2C(=O)[C@@H](NC(=O)COCCC(=O)N2CCN(c3ccc([C@H](C)NC(=O)C[C@@H]4N=C(c5ccc(Cl)cc5)c5c(sc(C)c5C)-n5c(C)nnc54)cc3)CC2)C(C)(C)C)cc1 [Example 48, (2S,4R)-1-[(2S)-2-{2-[3-(4-{4-[(1S)-1-{2-[(9S)-7-(4-chlorophenyl)-4,5,13-trimethyl-3-thia-1,8,11,12-tetraazatricyclo[8.3.0.0^2,^6]trideca-2(6),4,7,10,12-pentaen-9-yl]acetamido}ethyl]phenyl}piperazin-1-yl)-3-oxopropoxy]acetamido}-3,3-dimethylbutanoyl]-4-hydroxy-N-[(1S)-1-[4-(4-methyl-1,3-thiazol-5-yl)phenyl]ethyl]pyrrolidine-2-carboxamide] | 98 | 0.01 to 0.1
CNC[C@@H](NC(=O)[C@@H]1C[C@@H](O)CN1C(=O)[C@@H](NC(=O)COCCCOCCNC(=O)C[C@@H]1N=C(c2ccc(Cl)cc2)c2c(sc(C)c2C)-n2c(C)nnc21)C(C)(C)C)c1ccc(-c2scnc2C)cc1 [Example 111] | 47.3 | > 1
Cc1ncsc1-c1ccc(CNC(=O)[C@@H]2C[C@@H](O)CN2C(=O)[C@@H](NC(=O)COCCCOCCCNC(=O)C[C@@H]2N=C(c3ccc(Cl)cc3)c3c(sc(C)c3C)-n3c(C)nnc32)C(C)(C)C)cc1 [Example 46] | 100 | 0.01 to 0.1
Cc1sc2c(c1C)C(c1ccc(Cl)cc1)=N[C@@H](CC(=O)N[C@H]1C[C@H](Oc3ccc(CC(=O)N[C@H](C(=O)N4C[C@H](O)C[C@H]4C(=O)N[C@@H](C)c4ccc(-c5nccn5C)cc4)C(C)(C)C)cc3)C1)c1nnc(C)n1-2 [Example 273] | < 5 | > 1
Cc1ncsc1-c1ccc(CNC(=O)[C@@H]2C[C@@H](O)CN2C(=O)[C@@H](C(C)C)n2cc(-c3ccnc(O[C@H](C)CNC(=O)C[C@@H]4N=C(c5ccc(Cl)cc5)c5c(sc(C)c5C)-n5c(C)nnc54)c3)cn2)cc1 [Example 167] | 27.6 | > 1
Cc1ncsc1-c1ccc(CNC(=O)[C@@H]2C[C@@H](O)CN2C(=O)[C@@H](NC(=O)COCCOc2cc(-c3ccc([C@@H](C)NC(=O)C[C@@H]4N=C(c5ccc(Cl)cc5)c5c(sc(C)c5C)-n5c(C)nnc54)cc3)ccn2)C(C)(C)C)cc1 [Example 36, (2S,4R)-1-[(2S)-2-(2-{2-[(4-{4-[(1R)-1-{2-[(9S)-7-(4-chlorophenyl)-4,5,13-trimethyl-3-thia-1,8,11,12-tetraazatricyclo[8.3.0.0^2,^6]trideca-2(6),4,7,10,12-pentaen-9-yl]acetamido}ethyl]phenyl}pyridin-2-yl)oxy]ethoxy}acetamido)-3,3-dimethylbutanoyl]-4-hydroxy-N-{[4-(4-methyl-1,3-thiazol-5-yl)phenyl]methyl}pyrrolidine-2-carboxamide] | 97 | 0.01 to 0.1
Cc1ncsc1-c1ccc(CNC(=O)[C@@H]2C[C@@H](O)CN2C(=O)[C@@H](NC(=O)COCCCCCOc2cccc(NC(=O)C[C@@H]3N=C(c4ccc(Cl)cc4)c4c(sc(C)c4C)-n4c(C)nnc43)c2)C(C)(C)C)cc1 [Example 125] | 99.5 | < 0.01
Cc1ncsc1-c1ccc([C@H](C)NC(=O)[C@@H]2C[C@@H](O)CN2C(=O)[C@H](n2cc(-c3ccnc(O[C@H]4C[C@@H](NC(=O)C[C@@H]5N=C(c6ccc(Cl)cc6)c6c(sc(C)c6C)-n6c(C)nnc65)C4)c3)cn2)C(C)(C)C)cc1 [Example 239] | 39 | > 1
Cc1ncsc1-c1ccc([C@H](C)NC(=O)[C@@H]2C[C@@H](O)CN2C(=O)[C@@H](NC(=O)COc2ccc(O[C@@H](C)CNC(=O)C[C@@H]3N=C(c4ccc(Cl)cc4)c4c(sc(C)c4C)-n4c(C)nnc43)cc2)C(C)(C)C)cc1 [Example 135, (2S,4R)-1-[(2S)-2-{2-[(6-{[(2S)-1-{2-[(9S)-7-(4-chlorophenyl)-4,5,13-trimethyl-3-thia-1,8,11,12-tetraazatricyclo[8.3.0.0^2,^6]trideca-2(6),4,7,10,12-pentaen-9-yl]acetamido}propan-2-yl]oxy}pyridin-3-yl)oxy]acetamido}-3,3-dimethylbutanoyl]-4-hydroxy-N-[(1S)-1-[4-(4-methyl-1,3-thiazol-5-yl)phenyl]ethyl]pyrrolidine-2-carboxamide] | 99 | < 0.01
Cc1ncsc1-c1ccc([C@H](C)NC(=O)[C@@H]2C[C@@H](O)CN2C(=O)[C@@H](NC(=O)COc2ccc(N3CCN(C(=O)C[C@@H]4N=C(c5ccc(Cl)cc5)c5c(sc(C)c5C)-n5c(C)nnc54)CC3)nc2)C(C)(C)C)cc1 [Example 288] | 98 | < 0.01
Cc1sc2c(c1C)C(c1ccc(Cl)cc1)=N[C@@H](CC(=O)N[C@H]1C[C@@H](Oc3cccc(-c4cnn([C@H](C(=O)N5C[C@H](O)C[C@H]5C(=O)N[C@@H](C)c5ccc(-n6ccnc6C)cc5)C(C)C)c4)c3)C1)c1nnc(C)n1-2 [Example 299] | 72.5 | 0.1 to 1
Cc1ncsc1-c1ccc([C@H](C)NC(=O)[C@@H]2C[C@@H](O)CN2C(=O)[C@H](C(C)C)n2cc(-c3ccc(N4CC(NC(=O)C[C@@H]5N=C(c6ccc(Cl)cc6)c6c(sc(C)c6C)-n6c(C)nnc65)C4)nc3)cn2)cc1 [Example 265] | 95.9 | 0.01 to 0.1
Cc1ncsc1-c1ccc([C@H](C)NC(=O)[C@@H]2C[C@@H](O)CN2C(=O)[C@@H](NC(=O)Cc2cccc(O[C@H]3C[C@H](NC(=O)C[C@@H]4N=C(c5ccc(Cl)cc5)c5c(sc(C)c5C)-n5c(C)nnc54)C3)c2)C(C)(C)C)cc1 [Example 194] | 92.4 | < 0.01
Cc1ncsc1-c1ccc([C@H](C)NC(=O)[C@@H]2C[C@@H](O)CN2C(=O)[C@@H](C(C)C)n2cc(-c3ccc(N4CCN(C(=O)C[C@@H]5N=C(c6ccc(Cl)cc6)c6c(sc(C)c6C)-n6c(C)nnc65)CC4)nc3)cn2)cc1 [Example 321] | 56 | 0.1 to 1
Cc1ncsc1-c1ccc([C@H](C)NC(=O)[C@@H]2C[C@@H](O)CN2C(=O)[C@H](C(C)C)n2cc(-c3ccnc(O[C@H]4C[C@H](NC(=O)C[C@@H]5N=C(c6ccc(Cl)cc6)c6c(sc(C)c6C)-n6c(C)nnc65)C4)c3)cn2)cc1 [Example 228, (2S,4R)-4-hydroxy-N-[(1S)-1-[4-(4-methyl-1,3-thiazol-5-yl)phenyl]ethyl]-1-[(2S)-3-methyl-2-(4-{2-[(1r,3r)-3-{2-[(9S)-7-(4-chlorophenyl)-4,5,13-trimethyl-3-thia-1,8,11,12-tetraazatricyclo[8.3.0.0^2,^6]trideca-2(6),4,7,10,12-pentaen-9-yl]acetamido}cyclobutoxy]pyridin-4-yl}-1H-pyrazol-1-yl)butanoyl]pyrrolidine-2-carboxamide] | 100 | < 0.01
Cc1ncsc1-c1ccc(CNC(=O)[C@@H]2C[C@@H](O)CN2C(=O)[C@@H](NC(=O)COCCOCCOCCCCNC(=O)C[C@@H]2N=C(c3ccc(Cl)cc3)c3c(sc(C)c3C)-n3c(C)nnc32)C(C)(C)C)cc1 [Example 51, (2S,4R)-1-[(2S)-2-(2-{2-[2-(4-{2-[(9S)-7-(4-chlorophenyl)-4,5,13-trimethyl-3-thia-1,8,11,12-tetraazatricyclo[8.3.0.0^2,^6]trideca-2(6),4,7,10,12-pentaen-9-yl]acetamido}butoxy)ethoxy]ethoxy}acetamido)-3,3-dimethylbutanoyl]-4-hydroxy-N-{[4-(4-methyl-1,3-thiazol-5-yl)phenyl]methyl}pyrrolidine-2-carboxamide] | 97 | < 0.01
Cc1ncsc1-c1ccc(CNC(=O)[C@@H]2C[C@@H](O)CN2C(=O)[C@@H](c2cc(OCCN3CC[C@H](NC(=O)C[C@@H]4N=C(c5ccc(Cl)cc5)c5c(sc(C)c5C)-n5c(C)nnc54)C3)no2)C(C)C)cc1 [Example 310] | 94 | < 0.01
Cc1ncsc1-c1ccc(CNC(=O)[C@@H]2C[C@@H](O)CN2C(=O)[C@@H](NC(=O)COCCCOc2ccc3c(c2)c2c(C(N)=O)cc(-c4c(C)noc4C)cc2n3Cc2ccccc2)C(C)(C)C)cc1 [Example 184] | 91.5 | 0.01 to 0.1
